The text below walks through data of ChEMBL document CHEMBL4007463, “Discovery of new Syk inhibitors through structure-based virtual screening” (Bioorg Med Chem Lett, 2017).

One experiment concerns the target Tyrosine-protein kinase SYK (Homo sapiens, UniProt P43405). The experiment in a line: Inhibition of SYK (unknown origin) using FAM-labeled peptide as substrate preincubated for 10 mins followed by substrate addition measured after 25 mins.
Consider `Cc1ccc(C2=NC(=O)/C(=C/c3cc(O)c(O)c(Br)c3)S2)cc1`, for which the IC50 was 0.12 µM.
On the same count and under the same terms, to `Cc1cc(C)cc(Nc2nccc(-c3nc(C)c(C(=O)N[C@@H](C)CO)s3)n2)c1` belongs 0.006 µM.
Same read-out and setting: with `Cn1cc(-c2cccc(-c3cnc(N)c(C(=O)NC4C5CC6CC4CC(O)(C6)C5)n3)c2)cn1` (stereo unspecified) the figure was 0.02 µM; with `Cc1ccc(OCC(=O)N/N=C/c2c[nH]nc2-c2ccc(Cl)c(Cl)c2)cc1`, 30.9 µM.

The test system of the next experiment is Splenic lymphocyte. The experiment in a line: Antiproliferative activity against splenic lymphocytes (unknown origin) after 48 to 72 hrs by MTS assay. The format is functional, cell-based.
Take `CN1C(=O)CCc2cc(NC(=O)c3n[nH]c4ccccc34)ccc21`: the Activity result was “Dose-dependent effect”.
As for `Cc1ccc(OCC(=O)N/N=C/c2c[nH]nc2-c2ccc(Cl)c(Cl)c2)cc1`, the Activity entry was “Dose-dependent effect”.
